Test results from PMC5826112, “Intrapulmonary Pharmacokinetics of Relebactam, a Novel β-Lactamase Inhibitor, Dosed in Combination with Imipenem-Cilastatin in Healthy Subjects” (Antimicrobial Agents and Chemotherapy, 2018).
Read-outs that look alike come from different tables or passages of the source.

Assays:
[1] = parameters: method as in PMID 25403667; details: thigh infection model; cited from earlier work
[2] = Relebactam population PK model (two-compartment plasma model with time-invariant ELF partition coefficient); format: in vivo, human (healthy subjects)
Description: Population PK analysis was conducted using NONMEM (version 7.3) software (ICON plc., Dublin, Ireland). The first-order conditional estimation with interaction (FOCEI) method was applied for parameter estimation. […] To elucidate the relationship between plasma and ELF concentrations, penetration into the ELF was explored using three approaches, each using a naive pooled data approach: (i) a three-compartment model with bidirectional mass transfer between the ELF compartment and the central volume, (ii) a time-invariant partition coefficient driven by the predicted unbound plasma concentration, and (iii) an effect compartment with an input rate constant driven by the concentration difference between the volume in the central compartment and the effect compartment.
The equations comprising the partition coefficient model are as follows: (1) dA1/dt=Q2/V2A2−Q2/V1A1−CL/V1A1 (2) dA2/dt=Q2/V1A1−Q2/V2A2 (3) CELF=kELF·fu,REL·A1/V1 where A1 is the amount of drug in the central compartment, A2 is the amount of drug in the peripheral compartment, CL is the plasma clearance, Q2 is the intercompartmental clearance, V1 is the volume of distribution in the central compartment, V2 is the volume of distribution in the peripheral compartment, CELF is the relebactam concentration in the ELF, fu,ELF is the free fraction of relebactam in plasma (∼80%), kELF is the partition coefficient for distribution into the ELF space, and t is time.
The free fraction in the ELF was assumed to be 100%. Different residual error models (additive, proportional, and combined) were tested for both the plasma and ELF concentrations of relebactam. Model development, including the selection of the structural and residual error model, was based upon the success of minimization, numerical comparison of the objective function values, the precision of the parameter estimates, and the generation of standard model diagnostic plots. The PK of imipenem were not modeled, as the lung penetration data from this study were previously described using a population PK approach ([21]).

[3] = parameters: method as in earlier work; details: cited from earlier work
[4] = parameters: method as in PMID 27503659, PMID 28575389; details: coadministration with imipenem-cilastatin, phase 2 clinical studies; cited from earlier work
[5] = parameters: method as in data on file; details: mice; ref data on file; cited from earlier work
[6] = parameters: method as in earlier work; details: relebactam doses of 125 mg or higher; exceeds single-dose target; cited from earlier work
[7] = Safety and tolerability in healthy subjects; format: in vivo, human (healthy subjects); details: with imipenem-cilastatin
Source text: The safety and tolerability of relebactam were monitored by clinical assessment of adverse events, measurement of vital signs, and performance of a physical examination, 12-lead electrocardiogram (ECG), and standard laboratory safety tests (hematology, chemistry, and urinalysis). Renal function (established by determination of serum/urine creatinine, serum urea, urine protein, and urine albumin concentrations) and hepatic function (established by determination of serum bilirubin, alanine aminotransferase, and aspartate aminotransferase concentrations) were carefully monitored during the study. The safety of bronchoscopy and BAL was monitored by clinical assessment, including continuous cardiac monitoring and repeated measurements of vital signs, according to the standard operating procedures at the study site. All data were analyzed according to the treatment actually received. Safety and tolerability were assessed in the all-subjects-as-treated (AST) population, defined as all subjects who received at least one dose of study drug.

[8] = no reference given; cited from earlier work

**Q.** With `O=C(NC1CCNCC1)[C@@H]1CC[C@@H]2CN1C(=O)N2OS(=O)(=O)O` [relebactam] as the compound, how does the “required exposure (AUC0–24) for efficacy” value [1] read?
**A.** Its value is ~100 µM·h.

**Q.** What about the Kp ([2]; human, ELF / unbound plasma, intravenous, driven by predicted unbound plasma concentration, read-out: Penetration coefficient for ELF (θkELF)) of the same compound?
**A.** Its Kp is 0.553.

**Q.** What about the Kp ([2]; human, ELF/unbound plasma, intravenous, based on free drug levels, read-out: time-invariant partition coefficient (ELF) estimated by the model) of the same compound?
**A.** The Kp was 0.55.

**Q.** And the clearance ([2]; human, plasma, intravenous, population PK structural model, read-out: Clearance (θCL) (converted))?
**A.** The clearance was 153 mL/min.

**Q.** What about the Vd ([2]; human, plasma, intravenous, population PK structural model, read-out: Volume of distribution in the central compartment (θVc)) of the same compound?
**A.** The Vd was 15.3 L.

**Q.** What about the “Intercompartmental clearance (θQ2)” value ([2]; population PK structural model) of the same compound?
**A.** The value was 2.64 L/h.

**Q.** What about the “Volume of distribution in the peripheral compartment (θVp)” value ([2]; population PK structural model) of the same compound?
**A.** Its value is 10.6 L.

**Q.** And the “single-dose target (AUC0–∞)” value ([3]; derived from the target of 150 μM · h after four times daily dosing)?
**A.** Its value is 37.5 µM·h.

**Q.** And the “required exposure (AUC0–24) for efficacy” value ([3]; pulmonary infection model)?
**A.** Its value is 150 µM·h.

**Q.** And the tolerability [4]?
**A.** Its tolerability is “generally well tolerated”.

**Q.** What about the “penetration into the murine lung, ratio of total drug levels in the lung to total drug levels in plasma” value [5] of the same compound?
**A.** The value was “approximately 34%”.

**Q.** And the “exposure (AUC0–∞)” value [6]?
**A.** Its value is > 37.5 µM·h.

**Q.** What about the tolerability [7] of the same compound?
**A.** The tolerability was “sufficiently well tolerated”.

**Q.** What about the “unbound in plasma (free fraction)” value [8] of the same compound?
**A.** The value was ~80%.
